Assays:
Type in all cases: cell-based, human
PC3 = assay: CCK-8 anti-proliferation assay, PC3; details: mean ± SD; for inhibition at 20 µM: Homo sapiens, PC-3, 20 μM, read-out: Inhibition Rate (%) at 20 μM PC3
Experimental: (§1) Human cervical cancer HeLa, human prostate cancer PC3, human colonic carcinoma HCT116, human lung carcinoma A549, human breast cancer MDA-MB-231, mouse melanoma B16, human ovarian cancer SKOV3, human hepatoma Hep3B, and human liver L02 cells were purchased from the Cell Bank of Shanghai Institute of Biochemistry and Cell Biology, Chinese Academy of Sciences (Shanghai, China). The HeLa, A549, B16, PC3, MDA-MB-231, HCT116, and L02 cells were cultured in Dulbecco’s modified Eagle medium (DMEM, Gibco Inc.; Gaithersburg, MD, USA). All cultures were supplied with 10% fetal bovine serum (FBS; YHSM, Beijing, China), 100 IU/mL of penicillin, and 100 μg/mL of streptomycin, and cells were incubated at 37 °C in an atmosphere of 5% CO2.
(§2) A CCK-8 kit (MCE, USA) was used to perform a CCK-8 assay. Cells were plated and grown in the 96-well plates for the indicated period (48 h) in the incubator, followed by an incubation with the CCK-8 solutions for 1–4 h. Subsequently, the absorbance (450 nm) was measured by a microplate reader. The median inhibitory concentration (IC50) was determined from the dose–response curve. Experiments were performed in a triplicate.

HCT116 = assay: CCK-8 anti-proliferation assay, HCT116; details: mean ± SD; for inhibition at 20 µM: Homo sapiens, HCT-116, 20 μM, read-out: Inhibition Rate (%) at 20 μM HCT116
Experimental: as §1, §2

A549 = assay: CCK-8 anti-proliferation assay, A549; details: mean ± SD; for inhibition at 20 µM: Homo sapiens, A549, 20 μM, read-out: Inhibition Rate (%) at 20 μM A549
Experimental: as §1, §2

HeLa = assay: CCK-8 anti-proliferation assay, HeLa; details: 20 μM, mean ± SD; for inhibition at 20 µM: Homo sapiens, read-out: Inhibition Rate (%) at 20 μM HeLa
Experimental: as §1, §2

| Compound | inhibition at 20 µM (PC3) | inhibition at 20 µM (HCT116) | inhibition at 20 µM (A549) | inhibition at 20 µM (HeLa) | Inhibition Rate (%) at 20 μM PC3 (PC3; 20 μM) | Inhibition Rate (%) at 20 μM HCT116 (HCT116; 20 μM) | Inhibition Rate (%) at 20 μM A549 (A549; 20 μM) | Inhibition Rate (%) at 20 μM HeLa (HeLa) |
| --- | --- | --- | --- | --- | --- | --- | --- | --- |
| COc1cc(-c2ccc(/C=C(\C#N)C(=O)NCCc3cccs3)o2)c(OC)c2ccccc12 [Compound 4d, (E)-2-cyano-3-(5-(1,4-dimethoxynaphthalen-2-yl)furan-2-yl)-N-(2-(thiophen-2-yl)ethyl)acrylamide] | 7.17 ± 0.31% | 10.8 ± 0.49% | 21.58 ± 0.02% | 11.6 ± 0.79% |  |  |  |  |
| COc1cc(-c2ccc(/C=C(\C#N)C(=O)NC3CCN(Cc4ccccc4)CC3)o2)c(OC)c2ccccc12 [Compound 4a, (E)-N-(1-benzylpiperidin-4-yl)-2-cyano-3-(5-(1,4-dimethoxynaphthalen-2-yl)furan-2-yl)acrylamide] | 15.5 ± 0.17% | 5.69 ± 0.23% | 16.3 ± 0.22% | 13.6 ± 0.15% |  |  |  |  |
| COc1cc(-c2ccc(C(=O)Nc3cccc(N4CCN(C)CC4)c3)o2)c(OC)c2ccccc12 [Compound 8e, 5-(1,4-Dimethoxynaphthalen-2-yl)-N-(3-(4-methylpiperazin-1-yl)phenyl)furan-2-carboxamide] | 11.5 ± 0.17% | 7.7 ± 0.27% | 14.5 ± 0.25% | 40.58 ± 0.36% |  |  |  |  |
| COc1cc(-c2ccc(C(=O)NCCC(=O)N3CCOCC3)o2)c(OC)c2ccccc12 [Compound 8c, 5-(1,4-Dimethoxynaphthalen-2-yl)-N-(3-morpholino-3-oxopropyl)furan-2-carboxamide] | 4.65 ± 0.56% | 4.73 ± 0.47% | 14.1 ± 0.32% |  |  |  |  |  |
| COC(=O)c1ccc(C2=CC(=O)c3ccccc3C2=O)o1 [Compound 6a, Methyl 5-(1,4-dioxo-1,4-dihydronaphthalen-2-yl)furan-2-carboxylate] | 6.93 ± 0.79% | 17.67 ± 0.06% | 2.15 ± 0.37% | 26.1 ± 0.66% |  |  |  |  |
| N#C/C(=C\c1ccc(C2=CC(=O)c3ccccc3C2=O)o1)C(=O)NC1CCN(Cc2ccccc2)CC1 [Compound 5a, (E)-N-(1-benzylpiperidin-4-yl)-2-cyano-3-(5-(1,4-dioxo-1,4-dihydronaphthalen-2-yl)furan-2-yl)acrylamide] | 3.7 ± 0.19% | 8.36 ± 0.26% | 13.3 ± 0.17% | 10.4 ± 0.41% |  |  |  |  |
| COC(=O)c1ccc(-c2cc(OC)c3ccccc3c2OC)o1 [Compound 6, Methyl 5-(1,4-dimethoxynaphthalen-2-yl)furan-2-carboxylate] | 21.6 ± 0.83% | 16.78 ± 0.07% | 21.3 ± 0.45% | 27 ± 0.32% |  |  |  |  |
| COc1cc(-c2ccc(C(=O)NCCCn3ccnc3)o2)c(OC)c2ccccc12 [Compound 8g, N-(3-(1H-imidazol-1-yl)propyl)-5-(1,4-dimethoxynaphthalen-2-yl)furan-2-carboxamide] | 7.59 ± 0.72% | 27.46 ± 0.16% | 26.89 ± 0.16% | 18.28 ± 0.03% |  |  |  |  |
| COc1cc(-c2ccc(C(=O)NC3CCC(F)(F)CC3)o2)c(OC)c2ccccc12 [Compound 8f, N-(4,4-difluorocyclohexyl)-5-(1,4-dimethoxynaphthalen-2-yl)furan-2-carboxamide] | 17.72 ± 0.12% | 27.19 ± 0.15% | 28.3 ± 0.33% | 30.1 ± 0.39% |  |  |  |  |
| COc1cc(-c2ccc(/C=C(\C#N)C(=O)N3CC4CCCCC4C3)o2)c(OC)c2ccccc12 (stereo not drawn) [Compound 4f, (E)-3-(5-(1,4-dimethoxynaphthalen-2-yl)furan-2-yl)-2-(octahydro-1H-isoindole-2-carbonyl)acrylonitrile] | 11.8 ± 0.79% | 43.7 ± 0.84% |  |  |  |  |  |  |
| COc1cc(-c2ccc(/C=C(\C#N)C(=O)N3CCc4ccccc4C3)o2)c(OC)c2ccccc12 [Compound 4b, (E)-3-(5-(1,4-dimethoxynaphthalen-2-yl)furan-2-yl)-2-(1,2,3,4-tetrahydroisoquinoline-2-carbonyl)acrylonitrile] | 3.88 ± 0.13% | 19.6 ± 0.65% | 24.2 ± 0.31% | 11.71 ± 0.04% |  |  |  |  |
| N#C/C(=C\c1ccc(C2=CC(=O)c3ccccc3C2=O)o1)C(=O)NCCc1cccs1 [Compound 5d, (E)-2-cyano-3-(5-(1,4-dioxo-1,4-dihydronaphthalen-2-yl)furan-2-yl)-N-(2-(thiophen-2-yl)ethyl)acrylamide] | 15.5 ± 0.2% | 26.8 ± 0.94% | 17.2 ± 0.35% | 5.61 ± 0.24% |  |  |  |  |
| COc1cc(-c2ccc(C(=O)Nc3ccc(CN4CCN(C)CC4)c(C(F)(F)F)c3)o2)c(OC)c2ccccc12 [Compound 8h, 5-(1,4-Dimethoxynaphthalen-2-yl)-N-(4-((4-methylpiperazin-1-yl)methyl)-3-(trifluoromethyl)phenyl)furan-2-carboxamide] | 16.5 ± 0.97% | 19.6 ± 0.34% | 21.6 ± 0.39% | 28.47 ± 0.1% |  |  |  |  |
| CC1(C)CC(NC(=O)/C(C#N)=C/c2ccc(C3=CC(=O)c4ccccc4C3=O)o2)CC(C)(C)N1 [Compound 5e, (E)-2-cyano-3-(5-(1,4-dioxo-1,4-dihydronaphthalen-2-yl)furan-2-yl)-N-(2,2,6,6-tetramethylpiperidin-4-yl)acrylamide] | 19.3 ± 0.28% | 5.97 ± 95% | 19.8 ± 0.32% | 29.73 ± 0.07% |  |  |  |  |
| COc1cc(-c2ccc(/C=C(\C#N)C(=O)NCCN3CCCC3)o2)c(OC)c2ccccc12 [Compound 4i, (E)-2-cyano-3-(5-(1,4-dimethoxynaphthalen-2-yl)furan-2-yl)-N-(2-(pyrrolidin-1-yl)ethyl)acrylamide] | 12.29 ± 0.12% | 29.05 ± 0.08% | 13.9 ± 0.87% | 35 ± 0.41% |  |  |  |  |
| O=C(NC1CCN(Cc2ccccc2)CC1)c1ccc(C2=CC(=O)c3ccccc3C2=O)o1 [Compound 9a, N-(1-benzylpiperidin-4-yl)-5-(1,4-dioxo-1,4-dihydronaphthalen-2-yl)furan-2-carboxamide] | 2.39 ± 0.09% | 33.71 ± 0.13% | 20.7 ± 0.49% | 42.87 ± 0.22% |  |  |  |  |
| N#C/C(=C\c1ccc(C2=CC(=O)c3ccccc3C2=O)o1)C(=O)N1CC2CCCCC2C1 (stereo not drawn) [Compound 5f, (E)-3-(5-(1,4-dioxo-1,4-dihydronaphthalen-2-yl)furan-2-yl)-2-(octahydro-1H-isoindole-2-carbonyl)acrylonitrile] | 11.13 ± 0.03% | 3.41 ± 0.26% | 13.9 ± 0.14% | 1.9 ± 0.72% |  |  |  |  |
| N#C/C(=C\c1ccc(C2=CC(=O)c3ccccc3C2=O)o1)C(=O)N1CCc2ccccc2C1 [Compound 5b, (E)-3-(5-(1,4-dioxo-1,4-dihydronaphthalen-2-yl)furan-2-yl)-2-(1,2,3,4-tetrahydroisoquinoline-2-carbonyl)acrylonitrile] | 17.8 ± 0.33% | 8.83 ± 0.1% | 18.4 ± 0.82% | 20.5 ± 0.28% |  |  |  |  |
| CC(NC(=O)c1ccc(C2=CC(=O)c3ccccc3C2=O)o1)c1ccccc1 (stereo not drawn) [Compound 9b, 5-(1,4-Dioxo-1,4-dihydronaphthalen-2-yl)-N-(1-phenylethyl)furan-2-carboxamide] | 12.82 ± 0.01% | 7.22 ± 0.34% | 8.8 ± 0.04% | 18.65 ± 0.16% |  |  |  |  |
| COc1cc(-c2ccc(C(=O)NCc3cc(C(F)(F)F)ccc3F)o2)c(OC)c2ccccc12 [Compound 8d, 5-(1,4-Dimethoxynaphthalen-2-yl)-N-(2-fluoro-5-(trifluoromethyl)benzyl)furan-2-carboxamide] | 22.45 ± 0.05% | 14.5 ± 0.24% | 19.35 ± 0.07% | 22.7 ± 0.27% |  |  |  |  |
| (E)-2-cyano-3-(5-(1,4-dioxo-1,4-dihydronaphthalen-2-yl)furan-2-yl)-N-(3-(trifluoromethyl)phenyl)acrylamide [Compound 5g] |  |  |  |  | 11.20 ± 0.02% | 28.25 ± 0.04% | 32.35 ± 0.95% | 27.98 ± 0.36% |
| COc1cc(-c2ccc(C(=O)NC3CCN(Cc4ccccc4)CC3)o2)c(OC)c2ccccc12 [Compound 8a, N-(1-benzylpiperidin-4-yl)-5-(1,4-dimethoxynaphthalen-2-yl)furan-2-carboxamide] | 15.5 ± 0.29% | 12.4 ± 0.15% | 24.1 ± 0.35% | 20.86 ± 0.18% |  |  |  |  |
| COc1cc(-c2ccc(/C=C(\C#N)C(=O)NCc3cccc(C(F)(F)F)c3)o2)c(OC)c2ccccc12 [Compound 4g, (E)-2-cyano-3-(5-(1,4-dimethoxynaphthalen-2-yl)furan-2-yl)-N-(3-(trifluoromethyl)benzyl)acrylamide] | 15.38 ± 0.01% | 7.69 ± 0.02% | 4.87 ± 0.3% | 16.1 ± 0.17% |  |  |  |  |
| COc1cc(-c2ccc(C(=O)NC(C)c3ccccc3)o2)c(OC)c2ccccc12 (stereo not drawn) [Compound 8b, 5-(1,4-Dimethoxynaphthalen-2-yl)-N-(1-phenylethyl)furan-2-carboxamide] | 24.99 ± 0.19% | 2.17 ± 0.02% | 7.87 ± 0.11% | 19.33 ± 0.18% |  |  |  |  |

Reference: article PMC9609996, “SAR Study and Molecular Mechanism Investigation of Novel Naphthoquinone-furan-2-cyanoacryloyl Hybrids with Antitumor Activity” (Pharmaceutics, 2022)
